Data as given in PubChem BioAssay (NCI).
Where “and” joins values, the source holds several entries; their conditions need not be identical. Identical values can stand only once.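 Cells were grown in 96-well plates and exposed to each compound for 48 hours at five concentrations; endpoints were interpolated linearly between bracketing concentrations, or set to the highest concentration if not reached. GI50: concentration for 50% inhibition of growth. TGI is the concentration that stops growth completely.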

Assays:
Experiment in all cases: DTP human tumour cell line panel, 48 h
MDA-MB-435 = system: MDA-MB-435
NCI/ADR-RES ovarian = system: NCI/ADR-RES ovarian
PC-3 prostate = system: PC-3 prostate
SF-268 CNS = system: SF-268 CNS
SF-295 CNS = system: SF-295 CNS
SNB-75 CNS = system: SNB-75 CNS
SW-620 colon = system: SW-620 colon
M14 melanoma = system: M14 melanoma

| Compound | GI50 (MDA-MB-435) [µM] | TGI (MDA-MB-435) [µM] | GI50 (NCI/ADR-RES ovarian) | TGI (NCI/ADR-RES ovarian) | GI50 (PC-3 prostate) | TGI (PC-3 prostate) [µM] | GI50 (SF-268 CNS) [µM] | TGI (SF-268 CNS) [µM] | GI50 (SF-295 CNS) | TGI (SF-295 CNS) | GI50 (SNB-75 CNS) [µM] | TGI (SNB-75 CNS) | GI50 (SW-620 colon) [µM] | TGI (SW-620 colon) [µM] | GI50 (M14 melanoma) [µM] | TGI (M14 melanoma) |
| --- | --- | --- | --- | --- | --- | --- | --- | --- | --- | --- | --- | --- | --- | --- | --- | --- |
| COc1ccc(-c2csc3c2-n2cccc2C3=O)cc1O | < 0.01 | 0.0102 | 0.0143 µM | > 100 µM | 0.265 µM | > 100 | < 0.0284 | > 82.2 | 0.5 µM | > 100 µM | 0.0281 | > 100 µM | < 0.0122 | > 100 |  |  |
| CCCCCCCCCCCCCCCCn1cc[n+](Cc2ccccc2)c1C |  |  | 8.02 µM and 1.55 µM | 48.6 µM and 7.01 µM |  |  | 0.548 | 1.77 | 0.866 µM and 0.263 µM | 2.28 µM and 1.22 µM | 0.262 | 0.899 µM |  |  | 0.425 | 1.91 µM |
| OCc1ccc(Oc2c3ccccc3nc3occc23)cc1 | 15.5 | 38.2 | 20.2 µM | 49 µM | 31.8 µM | > 100 | 20.6 | 66.7 | 15.5 µM | 35.9 µM | 31.7 | 89.8 µM |  |  | 23.8 | 57.6 µM |
| NC(N)=N/N=C/c1c(-c2ccc(Cl)c([N+](=O)[O-])c2)nc2ccccn12 |  |  | > 100 µM | > 100 µM | 1.37 µM | 2.65 | 1.35 | 2.93 | 1.82 µM | 3.42 µM |  |  | 1.46 | 3.16 |  |  |
| Cc1ccc(F)cc1NC(=O)c1cc(Cl)ccc1Nc1ccccc1 | > 100 | > 100 | > 100 µM | > 100 µM | > 100 µM | > 100 | > 100 | > 100 | 56 µM | > 100 µM | 22.7 | > 100 µM | > 100 | > 100 |  |  |
| COc1ccc(-n2c3c(c4c(CN(C)C)c(O)c(C)cc42)CCc2ccccc2C3=O)cc1 | 14 | 40.4 | 17.9 µM | 45.2 µM | 11.7 µM | 50.3 | 61.9 | > 100 | 35.6 µM | > 100 µM |  |  | 32.5 | > 100 | 26.9 | 97 µM |
| CC(=O)OC12CC(C)C3(O)C4C=C(C)C(=O)[C@@]4(O)CC(CO)=C[C@H]3C1C2(C)C (stereo partly specified) | 0.205 |  | > 1000 µM | > 1000 µM | 0.228 µM | > 1000 | > 1000 | > 1000 |  |  | > 1000 | > 1000 µM |  |  | > 1000 | > 1000 µM |
| O=C1OCC2=C1C(c1cccc(C(F)(F)F)c1)c1cc3c(cc1N2CCO)CCC3 (stereo unspecified) | 0.05 | 0.159 | 0.153 µM | 6.82 µM | 0.194 µM | 7.56 | 0.266 | 7.15 | 0.138 µM | 6.21 µM |  |  | 0.189 | 9.16 | 0.159 | 6.2 µM |
| COc1ccc(-c2nc3sc4c(c3c(=O)[nH]2)CCCC4)c2ccccc12 |  |  |  | 4.95 µM and 2.75 µM | 0.343 µM and 0.0371 µM | > 100 |  | > 100 | 0.314 µM | 1.2 µM |  | 0.792 µM and 1.61 µM |  | > 100 |  | 0.63 µM and 0.135 µM |
| COc1ccc(C2=C(c3cc(OC)c(OC)c(OC)c3)C(=O)OC2)cc1OC | < 0.01 | 0.0109 |  |  | < 0.0151 µM | > 100 | 0.0906 | 30.5 | < 0.01 µM | 0.0217 µM | > 100 | > 100 µM | 0.105 | > 100 | 0.0231 | 1.76 µM |
| CC(C)=CC1CC(C)C2(CCC3(C)CC4C(C(=O)CC4(C)O)/C(C=O)=C\CC32)O1 (stereo unspecified) |  | 0.197 |  | 0.443 µM |  | 0.14 |  | 0.275 |  | 0.515 µM |  | 0.237 µM |  |  |  | 0.311 µM |
| COc1ccc(-c2ccccc2)cc1-c1c(Nc2cc(Cl)cc(Cl)c2O)c(=O)c1=O |  |  | 1.38 µM | > 50 µM | 1.37 µM | > 50 | 1.31 | > 50 | 1.26 µM | 3.69 µM | 1.03 | 3.61 µM | 1.7 | > 50 | 1.72 | > 50 µM |
| NC1=NC(c2ccc(F)cc2)C2=C(N1)c1ccc3ccccc3c1OCC2 (stereo unspecified) |  |  | 43.2 µM | > 100 µM | > 100 µM | > 100 | 18.2 | > 100 | 3.47 µM | 48.4 µM | 16.5 | 70.5 µM |  |  | > 100 | > 100 µM |
| CCOC(=O)C1=C(c2ccccc2)N(c2ccc(OC)cc2)[C@]2(C#N)C(O)=C(Cl)C(Cl)=C(O)[C@]12C#N | 18.8 | 37.1 | 15.6 µM | 36.5 µM |  |  | 24 | 52.2 | 25.9 µM | 76.7 µM | 18.4 | 36.7 µM | 20.2 | 38.4 | 20.9 | 41.3 µM |
